Reference: US11780893B2, “Kv1.3 blockers” (Zealand Pharma A/S, priority 2019, dated 2023)
Bridge positions count the residues as written; N and C are the ends. Square brackets hold non-standard residues; d marks the D form. Peptide text beside a SMILES is read from it. Nle = CCCC[C@H](N)C(=O)O

What was measured:
Assay in all cases: cell-based
Kv1.1 = biological target: T1, Kv1.1 (Homo sapiens, UniProt Q09470); details: for IC50: CHO cells, whole-cell patch clamp, read-out: Potency IC50 (nM) Kv1.1; for Selectivity Kv1.1/Kv1.3: ratio IC50[Kv1.1]/IC50[Kv1.3]
T1 construct: expressed in transfected cells; host or cells: Chinese Hamster Ovary (CHO)

Kv1.6 = biological target: T2, Kv1.6 (Homo sapiens, UniProt P17658); details: for IC50: CHO cells, whole-cell patch clamp, read-out: Potency IC50 (nM) Kv1.6; for Selectivity Kv1.6/Kv1.3: ratio IC50[Kv1.6]/IC50[Kv1.3]
T2 construct: expressed in transfected cells; host or cells: Chinese Hamster Ovary (CHO)

Kv1.3 = biological target: T3, Kv1.3 (Homo sapiens, UniProt P22001); details: CHO cells, whole-cell patch clamp; read-out: Potency IC50 (nM) Kv1.3
T3 construct: expressed in transfected cells; host or cells: Chinese Hamster Ovary (CHO)

Kv1.2 = biological target: T4, Kv1.2 (Homo sapiens, UniProt P16389); details: CHO cells, whole-cell patch clamp; read-out: Potency IC50 (nM) Kv1.2
T4 construct: expressed in transfected cells; host or cells: Chinese Hamster Ovary (CHO)

[1] = biological target: T5, human Kv1.3 voltage-gated K+ channel (Homo sapiens, UniProt P22001); details: inhibition of thallium flux, CHO-DUKX cells with human Kv1.3; read-out: IC50
T5 construct: host or cells: CHO-DUKX
T5 sequence (P22001 whole entry): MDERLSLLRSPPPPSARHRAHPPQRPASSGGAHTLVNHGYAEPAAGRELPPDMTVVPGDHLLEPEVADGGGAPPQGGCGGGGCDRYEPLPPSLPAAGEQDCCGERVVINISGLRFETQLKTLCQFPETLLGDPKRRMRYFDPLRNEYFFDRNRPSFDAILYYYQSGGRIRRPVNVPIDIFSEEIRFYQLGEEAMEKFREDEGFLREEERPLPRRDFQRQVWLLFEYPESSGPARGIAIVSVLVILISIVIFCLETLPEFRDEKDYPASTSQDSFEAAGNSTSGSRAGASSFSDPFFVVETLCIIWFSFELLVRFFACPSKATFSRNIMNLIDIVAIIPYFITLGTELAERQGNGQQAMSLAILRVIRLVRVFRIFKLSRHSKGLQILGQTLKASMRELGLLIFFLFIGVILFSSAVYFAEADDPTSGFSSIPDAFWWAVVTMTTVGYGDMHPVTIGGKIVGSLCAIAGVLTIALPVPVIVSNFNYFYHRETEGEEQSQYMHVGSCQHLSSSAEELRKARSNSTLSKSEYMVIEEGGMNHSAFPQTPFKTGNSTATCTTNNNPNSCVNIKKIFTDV

T3 sequence (P22001 whole entry): as above
T2 sequence (P17658 whole entry): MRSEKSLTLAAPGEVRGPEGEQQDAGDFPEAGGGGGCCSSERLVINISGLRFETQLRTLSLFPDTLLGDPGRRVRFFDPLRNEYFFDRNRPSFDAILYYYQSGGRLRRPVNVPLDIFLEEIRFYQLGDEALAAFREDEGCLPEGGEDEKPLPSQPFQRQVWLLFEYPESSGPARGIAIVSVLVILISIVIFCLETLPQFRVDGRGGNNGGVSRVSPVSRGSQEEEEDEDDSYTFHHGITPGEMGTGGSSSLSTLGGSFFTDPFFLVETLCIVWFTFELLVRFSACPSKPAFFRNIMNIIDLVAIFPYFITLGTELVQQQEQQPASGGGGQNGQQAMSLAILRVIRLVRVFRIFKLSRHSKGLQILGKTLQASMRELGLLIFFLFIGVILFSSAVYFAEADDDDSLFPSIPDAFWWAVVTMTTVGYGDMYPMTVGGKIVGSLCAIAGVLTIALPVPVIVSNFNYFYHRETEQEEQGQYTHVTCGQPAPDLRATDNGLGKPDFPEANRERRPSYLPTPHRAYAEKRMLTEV
T1 sequence (Q09470 whole entry): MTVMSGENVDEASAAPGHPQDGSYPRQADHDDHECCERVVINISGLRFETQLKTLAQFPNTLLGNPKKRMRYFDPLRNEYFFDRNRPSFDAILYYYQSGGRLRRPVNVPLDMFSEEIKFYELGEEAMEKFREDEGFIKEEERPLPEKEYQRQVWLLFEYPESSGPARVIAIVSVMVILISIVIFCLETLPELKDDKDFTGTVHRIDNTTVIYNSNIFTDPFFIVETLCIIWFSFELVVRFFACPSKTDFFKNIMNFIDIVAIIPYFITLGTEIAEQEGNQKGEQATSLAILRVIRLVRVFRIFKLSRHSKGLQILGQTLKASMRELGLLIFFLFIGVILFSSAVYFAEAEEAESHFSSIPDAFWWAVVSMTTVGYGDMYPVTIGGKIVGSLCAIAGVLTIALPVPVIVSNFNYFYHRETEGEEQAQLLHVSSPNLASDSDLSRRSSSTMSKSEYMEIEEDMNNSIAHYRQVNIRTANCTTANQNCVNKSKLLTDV
T4 sequence (P16389 whole entry): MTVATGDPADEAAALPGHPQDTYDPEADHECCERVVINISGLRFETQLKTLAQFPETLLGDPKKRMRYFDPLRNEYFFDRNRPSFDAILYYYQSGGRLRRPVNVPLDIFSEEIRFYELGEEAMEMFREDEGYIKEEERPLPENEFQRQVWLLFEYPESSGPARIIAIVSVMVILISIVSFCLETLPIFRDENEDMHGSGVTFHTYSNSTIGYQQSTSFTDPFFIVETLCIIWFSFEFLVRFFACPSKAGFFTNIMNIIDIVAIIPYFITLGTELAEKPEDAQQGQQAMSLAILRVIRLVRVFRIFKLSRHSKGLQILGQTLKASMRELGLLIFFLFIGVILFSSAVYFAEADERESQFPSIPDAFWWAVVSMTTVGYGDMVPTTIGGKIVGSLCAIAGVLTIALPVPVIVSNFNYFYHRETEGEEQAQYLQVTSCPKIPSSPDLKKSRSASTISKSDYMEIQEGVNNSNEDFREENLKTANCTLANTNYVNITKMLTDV

Row | SMILES | IC50 (Kv1.1) | Selectivity Kv1.1/Kv1.3 (Kv1.1) | IC50 (Kv1.6) | Selectivity Kv1.6/Kv1.3 (Kv1.6) | IC50 (Kv1.3) | IC50 (Kv1.2) | IC50 [1]
1 | CC[C@H](C)[C@@H]1NC(=O)[C@H](C)NC(=O)[C@H](CCCCN)NC(=O)[C@H](CC(C)C)NC(=O)[C@@H]2CSSC[C@@H](C(=O)N[C@@H](Cc3ccc(O)cc3)C(=O)N3CCC[C@H]3C(=O)N[C@@H](CCCNC(=N)N)C(N)=O)NC(=O)[C@H](CCCCN)NC(=O)[C@@H]3CSSC[C@H](NC(=O)[C@H](CCC(=O)O)NC(=O)[C@H](C(C)C)NC(=O)[C@H](CO)NC(=O)[C@H](C)NC(=O)[C@H](CO)NC(=O)[C@@H](NC(=O)[C@H](CCCNC(=N)N)NC(=O)[C@H](CCSC)NC(=O)[C@H](CC(=O)O)NC(=O)[C@H](CCSC)NC(=O)[C@@H](N)CC(N)=O)CSSC[C@H](NC(=O)[C@H](CCCCN)NC(=O)CNC(=O)[C@H](Cc4ccccc4)NC(=O)[C@H]([C@@H](C)CC)NC(=O)[C@H](CO)NC(=O)CNC1=O)C(=O)N[C@@H](CCSC)C(=O)N[C@@H](CC(N)=O)C(=O)NCC(=O)N[C@@H](CCCCN)C(=O)N3)C(=O)N[C@@H](CCCCN)C(=O)N[C@@H](CCC(N)=O)C(=O)N[C@@H](CCCCN)C(=O)N2 [Compound 36] (H-NMDMRCSASVECKQKCLKAIGSIFGKCMNGKCKCYPR-NH2; disulfide 6-27, 12-32, 16-34) | > 3000 nM | >9700 | > 3000 nM | >9700 | 0.31 nM | 439 nM | 0.24 nM
2 | CCCC[C@@H]1NC(=O)[C@@H]2CSSC[C@H](NC(=O)[C@H](CCCNC(=N)N)NC(=O)[C@H](CCCC)NC(=O)[C@H](CC(=O)O)NC(=O)[C@H](CCCC)NC(=O)[C@@H](N)CC(N)=O)C(=O)N[C@@H](CO)C(=O)N[C@@H](C)C(=O)N[C@@H](CO)C(=O)N[C@@H](C(C)C)C(=O)N[C@@H](CCC(=O)O)C(=O)N[C@H]3CSSC[C@H](NC(=O)[C@H](CCCCN)NC(=O)[C@H](CCCCN)NC(=O)[C@H](CC(N)=O)NC1=O)C(=O)N[C@@H](CCCCN)C(=O)N[C@H](C(=O)N[C@@H](Cc1ccc(O)cc1)C(=O)N1CCC[C@H]1C(=O)N[C@@H](CCCNC(=N)N)C(N)=O)CSSC[C@H](NC(=O)[C@H](CCCCN)NC(=O)[C@H](CCC(N)=O)NC(=O)[C@H](CCCCN)NC3=O)C(=O)N[C@@H](CC(C)C)C(=O)N[C@@H](CCCCN)C(=O)N[C@@H](C)C(=O)N[C@@H]([C@@H](C)CC)C(=O)NCC(=O)N[C@@H](CO)C(=O)N[C@@H]([C@@H](C)CC)C(=O)N[C@@H](Cc1ccccc1)C(=O)NCC(=O)N[C@@H](CCCCN)C(=O)N2 [Compound 40] (H-N[Nle]D[Nle]RCSASVECKQKCLKAIGSIFGKC[Nle]NKKCKCYPR-NH2; disulfide 6-27, 12-32, 16-34) | > 3000 nM | >11600 | 1830 nM | – | 0.26 nM | 113 nM | 0.1 nM
3 | CCCC[C@@H]1NC(=O)[C@@H]2CSSC[C@H](NC(=O)[C@H](CCCNC(=N)N)NC(=O)[C@H](CCCC)NC(=O)[C@H](CC(=O)O)NC(=O)[C@H](CCCC)NC(=O)[C@@H](N)CC(N)=O)C(=O)N[C@@H](CO)C(=O)N[C@@H](C)C(=O)N[C@@H](CO)C(=O)N[C@@H](C(C)C)C(=O)N[C@@H](CCC(=O)O)C(=O)N[C@H]3CSSC[C@H](NC(=O)[C@H](CCCCN)NC(=O)[C@H](CCCCN)NC(=O)[C@H](CC(N)=O)NC1=O)C(=O)N[C@@H](CCCCN)C(=O)N[C@H](C(=O)N[C@@H](Cc1ccc(O)cc1)C(=O)N1CCC[C@H]1C(=O)N[C@@H](CCCNC(=N)N)C(N)=O)CSSC[C@H](NC(=O)[C@H](CCCCN)NC(=O)[C@H](CCCCN)NC(=O)[C@H](CCCCN)NC3=O)C(=O)N[C@@H](CC(C)C)C(=O)N[C@@H](CCCCN)C(=O)N[C@@H](C)C(=O)N[C@@H]([C@@H](C)CC)C(=O)NCC(=O)N[C@@H](CO)C(=O)N[C@@H]([C@@H](C)CC)C(=O)N[C@@H](Cc1ccccc1)C(=O)NCC(=O)N[C@@H](CCCCN)C(=O)N2 [Compound 45] (H-N[Nle]D[Nle]RCSASVECKKKCLKAIGSIFGKC[Nle]NKKCKCYPR-NH2; disulfide 6-27, 12-32, 16-34) | > 3000 nM | >4000 | > 3000 nM | >4000 | 0.75 nM | 257 nM | 0.16 nM
4 | CC[C@H](C)[C@@H]1NC(=O)[C@H](C)NC(=O)[C@H](CC(C)C)NC(=O)[C@@H]2CSSC[C@@H](C(=O)N[C@@H](Cc3ccc(O)cc3)C(=O)N3CCC[C@H]3C(=O)N[C@@H](CCCNC(=N)N)C(N)=O)NC(=O)[C@H](CCCCN)NC(=O)[C@@H]3CSSC[C@H](NC(=O)[C@H](CCC(=O)O)NC(=O)[C@H](C(C)C)NC(=O)[C@H](CO)NC(=O)[C@H](C)NC(=O)[C@H](CO)NC(=O)[C@@H](NC(=O)[C@H](CCCNC(=N)N)NC(=O)[C@H](CCSC)NC(=O)[C@H](CC(=O)O)NC(=O)[C@H](CCSC)NC(=O)[C@@H](N)CC(N)=O)CSSC[C@H](NC(=O)[C@H](CCCCN)NC(=O)CNC(=O)[C@H](Cc4ccccc4)NC(=O)[C@H]([C@@H](C)CC)NC(=O)[C@H](CO)NC(=O)CNC1=O)C(=O)N[C@@H](CCSC)C(=O)N[C@@H](CC(N)=O)C(=O)N[C@@H](CCCCN)C(=O)N[C@@H](CCCCN)C(=O)N3)C(=O)N[C@@H](CCCCN)C(=O)N[C@@H](CCC(N)=O)C(=O)N[C@@H](CCCCN)C(=O)N2 [Compound 54] (H-NMDMRCSASVECKQKCLAIGSIFGKCMNKKCKCYPR-NH2; disulfide 6-26, 12-31, 16-33) | > 3000 nM | >1200 | > 3000 nM | >1200 | 2.41 nM | 291 nM | 0.46 nM
5 | CC[C@H](C)[C@@H]1NC(=O)[C@H](CCCNC(=N)N)NC(=O)[C@H](CCCCN)NC(=O)[C@H](CC(C)C)NC(=O)[C@@H]2CSSC[C@@H](C(=O)N[C@@H](Cc3ccc(O)cc3)C(=O)N3CCC[C@H]3C(=O)N[C@@H](CCCNC(=N)N)C(N)=O)NC(=O)[C@H](CCCCN)NC(=O)[C@@H]3CSSC[C@H](NC(=O)[C@H](CCC(=O)O)NC(=O)[C@H](C(C)C)NC(=O)[C@H](CO)NC(=O)[C@H](C)NC(=O)[C@H](CO)NC(=O)[C@@H](NC(=O)[C@H](CCCNC(=N)N)NC(=O)[C@H](CCSC)NC(=O)[C@H](CC(=O)O)NC(=O)[C@H](CCSC)NC(=O)[C@@H](N)CC(N)=O)CSSC[C@H](NC(=O)[C@H](CCCCN)NC(=O)CNC(=O)[C@H](Cc4ccccc4)NC(=O)[C@H]([C@@H](C)CC)NC(=O)[C@H](CO)NC(=O)CNC1=O)C(=O)N[C@@H](CCSC)C(=O)N[C@@H](CC(N)=O)C(=O)N[C@@H](CCCCN)C(=O)N[C@@H](CCCCN)C(=O)N3)C(=O)N[C@@H](CCCCN)C(=O)N[C@@H](CCC(N)=O)C(=O)N[C@@H](CCCCN)C(=O)N2 [Compound 56] (H-NMDMRCSASVECKQKCLKRIGSIFGKCMNKKCKCYPR-NH2; disulfide 6-27, 12-32, 16-34) | > 3000 nM | >9900 | 932 nM | – | 0.3 nM | 57 nM | 0.087 nM
6 | CC[C@H](C)[C@@H]1NC(=O)[C@H](CO)NC(=O)CNC(=O)[C@H](Cc2ccc(O)cc2)NC(=O)[C@H](C)NC(=O)[C@H](CCCCN)NC(=O)[C@H](CC(C)C)NC(=O)[C@@H]2CSSC[C@@H](C(=O)N[C@@H](Cc3ccc(O)cc3)C(=O)N3CCC[C@H]3C(=O)N[C@@H](CCCNC(=N)N)C(N)=O)NC(=O)[C@H](CCCCN)NC(=O)[C@@H]3CSSC[C@H](NC(=O)[C@H](CCC(=O)O)NC(=O)[C@H](C(C)C)NC(=O)[C@H](CO)NC(=O)[C@H](C)NC(=O)[C@H](CO)NC(=O)[C@@H](NC(=O)[C@H](CCCNC(=N)N)NC(=O)[C@H](CCSC)NC(=O)[C@H](CC(=O)O)NC(=O)[C@H](CCSC)NC(=O)[C@@H](N)CC(N)=O)CSSC[C@H](NC(=O)[C@H](CCCCN)NC(=O)CNC(=O)[C@H](Cc4ccccc4)NC1=O)C(=O)N[C@@H](CCSC)C(=O)N[C@@H](CC(N)=O)C(=O)N[C@@H](CCCCN)C(=O)N[C@@H](CCCCN)C(=O)N3)C(=O)N[C@@H](CCCCN)C(=O)N[C@@H](CCC(N)=O)C(=O)N[C@@H](CCCCN)C(=O)N2 [Compound 58] (H-NMDMRCSASVECKQKCLKAYGSIFGKCMNKKCKCYPR-NH2; disulfide 6-27, 12-32, 16-34) | > 3000 nM | >8800 | > 3000 nM | >8800 | 0.34 nM | 145 nM | 0.11 nM
7 | CCCC[C@H](NC(=O)[C@H](CC(=O)O)NC(=O)[C@H](CCCC)NC(=O)[C@@H](N)CO)C(=O)N[C@@H](CCCNC(=N)N)C(=O)N[C@H]1CSSC[C@@H]2NC(=O)[C@H](CCCCN)NC(=O)CNC(=O)[C@H](Cc3ccccc3)NC(=O)[C@H]([C@@H](C)CC)NC(=O)[C@H](CO)NC(=O)CNC(=O)[C@H]([C@@H](C)CC)NC(=O)[C@H](C)NC(=O)[C@H](CCCCN)NC(=O)[C@H](CC(C)C)NC(=O)[C@@H]3CSSC[C@@H](C(=O)N[C@@H](Cc4ccc(O)cc4)C(=O)N4CCC[C@H]4C(=O)N[C@@H](CCCNC(=N)N)C(N)=O)NC(=O)[C@H](CCCCN)NC(=O)[C@H](CSSC[C@H](NC(=O)[C@H](CCC(=O)O)NC(=O)[C@H](C(C)C)NC(=O)[C@H](CO)NC(=O)[C@H](C)NC(=O)[C@H](CO)NC1=O)C(=O)N[C@@H](C)C(=O)N[C@@H](CCC(N)=O)C(=O)N[C@@H](CO)C(=O)N3)NC(=O)[C@H](CCCCN)NC(=O)[C@H](CCCCN)NC(=O)[C@H](CC(N)=O)NC(=O)[C@H](CCSC)NC2=O [Compound 79] (H-S[Nle]D[Nle]RCSASVECAQSCLKAIGSIFGKCMNKKCKCYPR-NH2; disulfide 6-27, 12-32, 16-34) | > 3000 nM | >14600 | > 3000 nM | >14600 | 0.21 nM | 1150 nM | 0.13 nM
